Assay results published in patent publication US4784988A, “Peptides correlated to lysozyme” (Spa Societa' Prodotti Antibiotici S.p.A., priority 1985, dated 1988).
Where no end group is shown, it is not given here.

Tests used:
[1] = test system: cell colony-forming capacity; type: cell-based
hyperalgesia of the paw = assay: Randall-Selitto test, painful threshold on compression of the paw made hyperalgesic with brewer's yeast; type: in vivo, rats; conditions: rat, brewer's yeast 10 mg/rat, product injected in the paw, after 3 hours, vs irritant alone
Source text: With regard to the biological activity of the peptide mixtures obtained by enzymatic hydrolysis of lysozyme, like many of the peptides isolated at the pure state and/or reproduced through synthesis, it is observed, as previously reported, that they lack the bacteriolytic activity typical of the integral lysozyme structure, whereas they present important pharmacological and therapeutic properties. It was therefore possible for example to evidence a marked analgesic activity of numerous peptides, by testing their anti-nociceptive effects on laboratory animals using the well-known Randall-Selitto method.
In groups of 5-10 rats, hyperalgesia of the paw is induced by administering an irritant agent, for example brewer's yeast (10 mg/rat), into the planter aponeurosis and at the same time injecting the product under test at different doses. One group of rats is treated with the irritant agent alone. At intervals, in particular after 3 hours, the painful threshold on compression of the edematous paw is measured, i.e. the minimum pressure (in g) causing the sudden withdrawal of the paw of the animal.
The results are expressed as percentage increase in the mean painful threshold compared to the paw treated with the algogenic agent alone (without the drug). As an example, the data relative to the peptide mixture denominated "Fraction P.2" of chromatographic origin (See Scheme 1) are reported, as well as the individual peptides (I), (II) and (III).

herpes simplex Type 1 = assay: herpes simplex virus plaque formation on Vero cell monolayers; type: cell-based; conditions: herpes simplex Type 1, Vero cells, 72 hours' incubation
Procedure: Yet other example, the mixture and the peptides of the present invention resulted active in an antiviral sense in numerous cases. They were submitted to various tests to verify their influence on the capacity of the herpes simplex virus to infect and form plaques on monolayer cell cultures. To this purpose, a viral strain of herpes simplex Type 1 at suitable concentration was added to monolayers of Vero cells (Flow). After being in contact for 1 hour, the virus was removed and the monolayer washed and then covered with fresh culture medium […] (Flow), adding at the end suitable quantities of the substance under test. After 72 hours' incubation, the plates were coloured with neutral red and the visible plaques counted. […] Similar results were obtained with a peptide fraction isolated in an analogous manner after hydrolysis of lysozyme with trypsin and chymotrypsin. Even more surprising results were obtained with peptides such as (I) or (III) which resulted capable of inducing analogous reductions in the viral plaque-forming units at considerably lower concentrations (0.1-1 mg/ml).

[2] = type: physicochemical
Procedure: Having obtained the desired peptide sequence, it is then necessary to proceed with the splitting from the solid support and deprotection of the residual functional groups, which is carried out by action of gaseous hydrobromic acid on the peptide-resin suspension, working in trifluoroacetic acid and in presence of adequate quantities of anisole.

Substance | cytotoxic effects (cell colony-forming capacity) [1] | Δ% of the algogenic threshold (hyperalgesia of the paw; dose 1 mg/rat) [%] | Δ% of the algogenic threshold (hyperalgesia of the paw; dose 2 mg/rat) [%] | Δ% of the algogenic threshold (hyperalgesia of the paw; dose 4 mg/rat) [%] | concentration inducing analogous reductions in the viral plaque-forming units (herpes simplex Type 1) | solubility in water [2] | Δ% of the algogenic threshold (hyperalgesia of the paw; dose 0.5 mg/rat) [%] | Δ% of the algogenic threshold (hyperalgesia of the paw; dose 0.75 mg/rat) [%] | inhibition of the viral capacity to form plaques (herpes simplex Type 1; 5 mg/ml) [%]
NTQATNR [peptide (III)] | devoid of cytotoxic effects | 30 | 60 | 100 | 0.1-1 mg/ml | – | – | – | –
NTDGSTDY [peptide (II)] | – | 90 | – | – | – | very soluble in water | 30 | 60 | –
NTQATNRNTDGSTDY [peptide (I)] | devoid of cytotoxic effects | – | 120 | – | 0.1-1 mg/ml | – | – | – | –
lysozyme: small globular protein of 129 amino acid residues extracted from hen egg-white | – | – | – | – | – | – | – | – | 75
